Measured values published in patent US10645922B2, “Methods and compositions for pest bait” (Dow AgroSciences LLC, priority 2015, dated 2020).
Entries after “also recorded” stand apart in the source; their conditions may differ.

Tested on: termites
Test: Two-way choice bioassay, filter paper consumption by termite workers
Type: in vivo, Reticulitermes flavipes
Conditions: FIG. 1A, FIG. 1B; series of experiments and validated tests
Method: Two-way choice bioassays are conducted with the granule formulation containing 1% 1-MCP in weight boats. Test materials are placed in weigh boats to prevent physical contact of termite workers with test material. Filter papers associated with 1-MCP are used to qualify consumption. Bioassay arenas are placed inside sealed plastic containers with open moisture sources to maintain high humidity for releasing 1-MCP from the granule formulation. […] The experiment results are also shown in Table 1, where negative control uses granules having 22% alpha-cyclodextrin+78% sodium bentonite.

CC1=CC1 [1-MCP, 1-methylcyclopropene]
Filter paper consumption in presence of 1-MCP (in words): Significant higher consumption; also recorded: significantly increase
